This is an account of results in patent US11098010B2 (priority 2017, dated 2021).

The test system of the test is HBV rcDNA in HepDE19 cells. As to the kind of experiment: HepDE19 assay with bDNA quantitation of HBV rcDNA. The test is classed as cell-based, hepatitis B virus (HBV).
Setting [1] is: Hepatitis B virus, HepDE19, 168 h, HepDE19 cells, inhibition of rcDNA formation, 7 day incubation, top concentration 25 μM, read-out: DE-19 bDNA EC50.
Where [2] appears, read: Hepatitis B virus, HepDE19, 168 h, read-out: DE-19 bDNA EC50 (μM), HepDE19 cells, inhibition of rcDNA formation, 7 day incubation, top concentration 25 μM.
[3] abbreviates: read-out: DE-19 bDNA EC50, HepDE19 cells, inhibition of rcDNA formation, 7 day incubation, top concentration 25 μM.
Setting [4] is: HepDE19 cells, inhibition of rcDNA formation, 7 day incubation, top concentration 25 μM, read-out: DE-19 bDNA EC50.

Structures can show the parent of a compound that is named as a salt. Where two headings read alike, the source gives them in different places.

With `O=C(N[C@H]1CCc2c(C(=O)Nc3ccc(F)c(Cl)c3)ccc(F)c21)O[C@H]1CCOC1` [Compound 181, O—(S)-Tetrahydrofuran-3-yl, N—((S)-4-((3-chloro-4-fluorophenyl)carbamoyl)-7-fluoro-2,3-dihydro-1H-inden-1-yl) carbamate], the EC50 under setting [1] was 0.15 µM.
The same measure, in the same setting: the value for `COCCS(=O)(=O)N[C@H]1CCc2c(C(=O)Nc3ccc(F)c(Cl)c3)ccc(F)c21` [Compound 182, (S)—N-(3-Chloro-4-fluorophenyl)-7-fluoro-1-((2-methoxyethyl)sulfonamido)-2,3-dihydro-1H-indene-4-carboxamide] was 0.59 µM.
Take `O=C(Nc1ccc(F)c(Cl)c1)c1ccc(F)c2c1CC[C@@H]2NS(=O)(=O)c1ccccc1` [Compound 183, (S)—N-(3-Chloro-4-fluorophenyl)-7-fluoro-1-(phenylsulfonamido)-2,3-dihydro-1H-indene-4-carboxamide]: under setting [2], the EC50 amounted to 0.65 µM.
Still for that read-out and setting: the value for `O=C(Nc1ccc(F)c(Cl)c1)c1ccc(F)c2c1CC[C@@H]2NS(=O)(=O)c1ccccn1` [Compound 184, (S)—N-(3-Chloro-4-fluorophenyl)-7-fluoro-1-(pyridine-2-sulfonamido)-2,3-dihydro-1H-indene-4-carboxamide Hydrochloride] was 0.66 µM.
Still for that read-out and setting: under `COCC(=O)N1CCC(COC(=O)N[C@H]2CCc3c(C(=O)Nc4ccc(F)c(Cl)c4)ccc(F)c32)CC1` [Compound 185, O-(1-(2-Methoxyacetyl)piperidin-4-yl)methyl, N—(S)-(4-((3-chloro-4-fluorophenyl)carbamoyl)-7-fluoro-2,3-dihydro-1H-inden-1-yl) carbamate] stands 0.37 µM.
In the case of `O=C(Nc1ccc(F)c(Cl)c1)c1ccc(F)c2c1CC[C@@H]2Nc1ncc(O)cn1` [Compound 186, (S)-N-(3-chloro-4-fluorophenyl)-7-fluoro-1-((5-hydroxypyrimidin-2-yl)amino)-2,3-dihydro-1H-indene-4-carboxamide], the EC50 under setting [1] was 1.6 µM.
Take `COC(=O)NC1COc2c(C(=O)Nc3ccc(F)c(Cl)c3)ccc(F)c21` (stereo not shown) [Compound 187, O-Methyl, N-(7-((3-chloro-4-fluorophenyl)carbamoyl)-4-fluoro-2,3-dihydrobenzofuran-3-yl) carbamate]: the EC50 under setting [3] worked out at 23 µM.
On the same count and under the same terms, under `COC(=O)NC1COc2c(C(=O)Nc3ccc(F)c(Cl)c3)ccc(F)c21` (stereo not shown) [Compound 188, O-Methyl, N-(7-((3-chloro-4-fluorophenyl)carbamoyl)-4-fluoro-2,3-dihydrobenzofuran-3-yl) carbamate] stands 5.3 µM.
`O=C(N[C@H]1CCc2c(C(=O)Nc3ccc(F)c(Cl)c3)ccc(F)c21)OCc1cc[nH]n1` [Compound 193, O-(1H-Pyrazol-3-yl)methyl, N—(S)-(4-((3-chloro-4-fluorophenyl)carbamoyl)-7-fluoro-2,3-dihydro-1H-inden-1-yl) carbamate]: under setting [2], the EC50 came to 0.06 µM.
As for `Cn1ccc(CNC(=O)N[C@H]2CCc3c(C(=O)Nc4ccc(F)c(Cl)c4)ccc(F)c32)n1` [Compound 194], the EC50 under setting [2] came to 0.16 µM.
With `O=C(N[C@H]1CCc2c(C(=O)Nc3ccc(F)c(Cl)c3)ccc(F)c21)OCc1nc[nH]n1` [Compound 195, O-(1H-1,2,4-Triazol-3-yl)methyl, N—(S)-(4-((3-chloro-4-fluorophenyl)carbamoyl)-7-fluoro-2,3-dihydro-1H-inden-1-yl) carbamate], under setting [1], the EC50 stood at 0.1 µM.
As for `O=C(Nc1ccc(F)c(Cl)c1)c1ccc(F)c2c1CC[C@@H]2Nc1ccncn1` [Compound 196, (S)—N-(3-Chloro-4-fluorophenyl)-7-fluoro-1-(pyrimidin-4-ylamino)-2,3-dihydro-1H-indene-4-carboxamide], under setting [2], the EC50 was 0.63 µM.
On the same count and under the same terms, the value for `COc1ccc(Cn2ccc3cnc(N[C@H]4CCc5c(C(=O)Nc6ccc(F)c(Cl)c6)ccc(F)c54)nc32)cc1` [Compound 197, (S)—N-(3-Chloro-4-fluorophenyl)-7-fluoro-1-((7-(4-methoxybenzyl)-7H-pyrrolo[2,3-d]pyrimidin-2-yl)amino)-2,3-dihydro-1H-indene-4-carboxamide] was 1.2 µM; that for `O=C1CCC[C@H](COC(=O)N[C@H]2CCc3c(C(=O)Nc4ccc(F)c(Cl)c4)ccc(F)c32)N1` [Compound 198, O—((R)-6-Oxopiperidin-2-yl)methyl, N—((S)-4-((3-chloro-4-fluorophenyl)carbamoyl)-7-fluoro-2,3-dihydro-1H-inden-1-yl) carbamate] was 0.22 µM.
With `O=C1CC[C@@H](OC(=O)N[C@H]2CCc3c(C(=O)Nc4ccc(F)c(Cl)c4)ccc(F)c32)CN1` [Compound 199, O—(R)-6-Oxopiperidin-3-yl, N—((S)-4-((3-chloro-4-fluorophenyl)carbamoyl)-7-fluoro-2,3-dihydro-1H-inden-1-yl)carbamate], under setting [1], the EC50 came to 0.25 µM.
On the same count and under the same terms, under `O=C1CC[C@H](OC(=O)N[C@H]2CCc3c(C(=O)Nc4ccc(F)c(Cl)c4)ccc(F)c32)CN1` [Compound 200, O—(S)-6-Oxopiperidin-3-yl, N—((S)-4-((3-chloro-4-fluorophenyl)carbamoyl)-7-fluoro-2,3-dihydro-1H-inden-1-yl) carbamate] stands 0.43 µM.
Turning to `COC(=O)NC1COc2c(C(=O)Nc3ccc(F)c(C)c3)ccc(F)c21` (stereo not shown) [Compound 201, O-Methyl, N-(4-fluoro-7-((4-fluoro-3-methylphenyl)carbamoyl)-2,3-dihydrobenzofuran-3-yl) carbamate], the EC50 under setting [3] was 5.5 µM.
The same measure, in the same setting: under `COC(=O)NC1COc2c(C(=O)Nc3ccc(F)c(C)c3)ccc(F)c21` (stereo not shown) [Compound 202, O-Methyl, N-(4-fluoro-7-((4-fluoro-3-methylphenyl)carbamoyl)-2,3-dihydrobenzofuran-3-yl) carbamate] stands 0.42 µM.
In the case of `Cc1cc(NC(=O)c2ccc(F)c3c2OCC3NC(=O)OCc2ccccn2)ccc1F` (stereo not shown) [Compound 205, O-Pyridin-2-ylmethyl, N-(4-fluoro-7-((4-fluoro-3-methylphenyl)carbamoyl)-2,3-dihydrobenzofuran-3-yl) carbamate], the EC50 under setting [1] is 3.7 µM.
On the same count and under the same terms, the value for `O=C(NC1CC1)N[C@H]1CCc2c(C(=O)Nc3ccc(F)c(Cl)c3)ccc(F)c21` [Compound 209, (S)—N-(3-Chloro-4-fluorophenyl)-1-(3-cyclopropylureido)-7-fluoro-2,3-dihydro-1H-indene-4-carboxamide] was 0.33 µM.
As for `COC(=O)NC1c2c(F)ccc(C(=O)Nc3ccc(F)c(Cl)c3)c2CC1(F)F` (stereo not shown) [Compound 210, O-methyl, N-((4-((3-chloro-4-fluorophenyl)carbamoyl)-2,2,7-trifluoro-2,3-dihydro-1H-inden-1-yl) carbamate], under setting [4], the EC50 was 15 µM.
Turning to `O=C1CCC[C@@H](COC(=O)N[C@H]2CCc3c(C(=O)Nc4ccc(F)c(Cl)c4)ccc(F)c32)N1` [Compound 212, O—((S)-6-Oxopiperidin-2-yl)methyl, N—((S)-4-((3-chloro-4-fluorophenyl)carbamoyl)-7-fluoro-2,3-dihydro-1H-inden-1-yl) carbamate], under setting [2], the EC50 is 0.27 µM.
On the same count and under the same terms, under `O=C1CC(COC(=O)N[C@H]2CCc3c(C(=O)Nc4ccc(F)c(Cl)c4)ccc(F)c32)N1` (stereo partly drawn) [Compound 213, O-(4-Oxoazetidin-2-yl)methyl, N—((S)-4-((3-chloro-4-fluorophenyl)carbamoyl)-7-fluoro-2,3-dihydro-1H-inden-1-yl) carbamate] stands 0.33 µM.
Turning to `COC(=O)NC1(C)CCc2c(C(=O)Nc3ccc(F)c(Cl)c3)ccc(F)c21` (stereo not shown) [Compound 214, O-methyl, N-(4-((3-chloro-4-fluorophenyl)carbamoyl)-7-fluoro-1-methyl-2,3-dihydro-1H-inden-1-yl) carbamate], under setting [4], the EC50 was 2.6 µM.
With `O=C(Nc1ccc(F)c(Cl)c1)c1cccc2c1CC[C@@H]2NS(=O)(=O)C1CC1` [Compound 216, (S)—N-(3-chloro-4-fluorophenyl)-1-(cyclopropanesulfonamido)-2,3-dihydro-1H-indene-4-carboxamide], the EC50 under setting [1] is 0.04 µM.
For the molecule `COC(=O)NC1(C)CCc2c(C(=O)Nc3ccc(F)c(Cl)c3)ccc(F)c21` (stereo not shown) [Compound 217, O-Methyl, N-(4-((3-chloro-4-fluorophenyl)carbamoyl)-7-fluoro-1-methyl-2,3-dihydro-1H-inden-1-yl) carbamate], under setting [4], the EC50 was 12 µM.
Take `COC(=O)NC1(C)CCc2c(C(=O)Nc3ccc(F)c(Cl)c3)ccc(F)c21` (stereo not shown) [Compound 218, O-Methyl, N-(4-((3-chloro-4-fluorophenyl)carbamoyl)-7-fluoro-1-methyl-2,3-dihydro-1H-inden-1-yl) carbamate]: under setting [4], the EC50 is 1.9 µM.
On the same count and under the same terms, the value for `CC1(NC(=O)OCc2ccccn2)CCc2c(C(=O)Nc3ccc(F)c(Cl)c3)ccc(F)c21` (stereo not shown) [Compound 219, O-pyridin-2-ylmethyl, N-(4-((3-chloro-4-fluorophenyl)carbamoyl)-7-fluoro-1-methyl-2,3-dihydro-1H-inden-1-yl) carbamate] was 1.5 µM; that for `O=C(NC1c2c(F)ccc(C(=O)Nc3ccc(F)c(Cl)c3)c2CC1(F)F)OCc1ccccn1` (stereo not shown) [Compound 220, O-pyridin-2-ylmethyl, N-(4-((3-chloro-4-fluorophenyl)carbamoyl)-2,2,7-trifluoro-2,3-dihydro-1H-inden-1-yl) carbamate] was 10 µM.
Turning to `O=C(Nc1ccc(F)c(Cl)c1)c1ccc(F)c2c1CC[C@@H]2NS(=O)(=O)CC1CC1` [Compound 221, (S)—N-(3-Chloro-4-fluorophenyl)-1-((cyclopropylmethyl)sulfonamido)-7-fluoro-2,3-dihydro-1H-indene-4-carboxamide], the EC50 under setting [1] stood at 0.21 µM.
On the same count and under the same terms, the value for `O=C(Nc1ccc(F)c(Cl)c1)c1ccc(F)c2c1CC[C@@H]2NS(=O)(=O)Cc1ccccc1` [Compound 222, (S)—N-(3-Chloro-4-fluorophenyl)-7-fluoro-1-((phenylmethyl)sulfonamido)-2,3-dihydro-1H-indene-4-carboxamide] was 0.3 µM.
